Data: article PMC12118597 (Science Advances, 2025)
Like-named read-outs stand apart in the source and are kept apart here.

Biological target: SARS-CoV-2 NSP3 macrodomain (Mac1) (Severe acute respiratory syndrome coronavirus 2, UniProt P0DTD1)
Assay type: binding
Conditions: for 1-BDC: PanDDA background density correction factor; for PanDDA run, overall: Hit / PanDDA run, overall: Modeled: P43 crystal form; for Total number of conformations: ligand conformations modeled in the crystal structure; for 2*(1-BDC) (%): occupancy estimate from PanDDA; for Refined ligand occupancy (%): refined crystallographic occupancy
[1] = TRUE = crystal structure with ligand obtained
[2] = site of ligand in X-ray crystal structure
[3] = ligand-bound crystal structure obtained (TRUE)
[4] = site occupied in X-ray crystal structure
[5] = crystal soak 10 mM, TFA/DMSO background map

SMILES	Occupancy difference (refined_occupancy - 2*(1-BDC))	1-BDC	X-ray crystal structure [1]	PanDDA run, overall: Hit (crystal soak 10 mM)	PanDDA run, overall: Modeled (crystal soak 10 mM)	PanDDA run, DMSO background map: 1-BDC (crystal soak 10 mM)	PanDDA run, DMSO background map: Hit (crystal soak 10 mM)	Total number of conformations	2*(1-BDC) (%)	Refined ligand occupancy (%)	Binding site [2]	X-ray crystal structure [3]	Binding site [4]	PanDDA run, overall: Modeling comment (crystal soak 10 mM)	PanDDA run, TFA/DMSO background map: 1-BDC [5]	PanDDA run, TFA/DMSO background map: Hit [5]	Phe132 loop open state
OCC(Nc1ncnc2[nH]ccc12)C1CCc2ccccc21 (stereo not drawn) [AVI-3693]	16	0.22	TRUE	TRUE	TRUE	0.22	TRUE	2	44%	60%	Adenosine	–	–	–	–	–	–
OCC(Cc1ccccn1)Nc1ncnc2[nH]ccc12 (stereo not drawn) [AVI-3696]	14	0.13	TRUE	TRUE	TRUE	0.13	TRUE	2	26%	40%	Adenosine	–	–	–	–	–	–
OCC(O)C1CCCN1c1ncnc2[nH]ccc12 (stereo not drawn) [AVI-3701]	0	0.18	–	TRUE	–	0.18	TRUE	1	36%	36%	–	TRUE	Adenosine	–	–	–	–
O=C(O)C(F)(F)F.OC[C@H]1CC2(CN1c1ncnc3[nH]ccc13)OCCO2 [AVI-3702]	0	0.21	–	TRUE	–	0.21	TRUE	1	42%	42%	–	TRUE	Adenosine	–	–	–	–
OCC(Cc1cncs1)Nc1ncnc2[nH]ccc12 (stereo not drawn) [AVI-3703]	0	0.15	TRUE	TRUE	–	0.15	TRUE	1	30%	30%	Adenosine	–	–	–	–	–	–
OCC(Cc1ccoc1)Nc1ncnc2[nH]ccc12 (stereo not drawn) [AVI-3705]	0	0.21	TRUE	TRUE	–	0.21	TRUE	1	42%	42%	Adenosine	–	–	–	–	–	–
O=C(O)C(F)(F)F.OCC(Cc1cccc(F)c1)Nc1ncnc2[nH]ccc12 (stereo not drawn) [AVI-3706]	–	–	–	–	–	–	–	–	–	–	–	–	–	TFA only	–	–	–
OCC1CC2(CCOCC2)CN1c1ncnc2[nH]ccc12 (stereo not drawn) [AVI-3707]	0	0.21	–	TRUE	–	0.21	TRUE	1	42%	42%	–	TRUE	Adenosine	Distal site, weak density, not modeled	–	–	–
OCC(COCc1ccccc1)Nc1ncnc2[nH]ccc12 (stereo not drawn) [AVI-3709]	0	0.19	TRUE	TRUE	–	0.19	TRUE	2	38%	38%	Adenosine	–	–	–	–	–	–
O=C(O)C(F)(F)F.OC[C@@H]1CC2(CC2)CN1c1ncnc2[nH]ccc12 [AVI-3710]	0	0.26	–	TRUE	–	0.26	TRUE	2	52%	52%	–	TRUE	Adenosine	Weak density for open state of Phe132 loop	–	–	–
OCC(Cc1cccs1)Nc1ncnc2[nH]ccc12 (stereo not drawn) [AVI-3711]	0	0.21	TRUE	TRUE	–	0.21	TRUE	1	42%	42%	Adenosine	–	–	–	–	–	–
O=C(O)C(F)(F)F.OCC1C2C=CC(C2)N1c1ncnc2[nH]ccc12 (stereo not drawn) [AVI-3712]	–	–	–	TRUE	–	0.15	TRUE	–	–	–	–	–	–	Weak density, not modeled	0.05	TRUE	–
CC(C)(C)C(O)CC(CO)Nc1ncnc2[nH]ccc12.O=C(O)C(F)(F)F (stereo not drawn) [AVI-3714]	–	–	–	–	–	–	–	–	–	–	–	–	–	TFA only	–	–	–
OCC(Nc1ncnc2[nH]ccc12)c1ccccc1 (stereo not drawn) [AVI-3715]	0	0.18	TRUE	TRUE	–	0.18	TRUE	1	36%	36%	Adenosine	–	–	–	–	–	–
OCC1COCCN1c1ncnc2[nH]ccc12 (stereo not drawn) [AVI-3717]	0	0.14	–	TRUE	–	0.14	TRUE	2	28%	28%	–	TRUE	Adenosine	–	–	–	–
CC(C)(C)C1CCC(CO)N(c2ncnc3[nH]ccc23)C1 (stereo not drawn) [AVI-3719]	0	0.08	–	TRUE	–	0.08	TRUE	1	16%	16%	–	TRUE	Adenosine	–	–	–	TRUE
CN1CCN(c2ncnc3[nH]ccc23)C(CO)C1 (stereo not drawn) [AVI-3721]	0	0.06	–	TRUE	–	0.06	TRUE	2	12%	12%	–	TRUE	Adenosine	–	–	–	–
CC(C)(C)[C@@H]1CCN(c2ncnc3[nH]ccc23)[C@H](CO)C1 [AVI-3722]	0	0.11	–	TRUE	–	0.11	TRUE	1	22%	22%	–	TRUE	Adenosine	–	–	–	–
CC1(C)CCC(CO)N(c2ncnc3[nH]ccc23)C1 (stereo not drawn) [AVI-3726]	0	0.17	–	TRUE	–	0.17	TRUE	3	34%	34%	–	TRUE	Adenosine	–	–	–	–
OCC1CC2(CCCCC2)CN1c1ncnc2[nH]ccc12 (stereo not drawn) [AVI-3727]	0	0.29	–	TRUE	–	0.29	TRUE	1	58%	58%	–	TRUE	Adenosine	Distal site, weak density, not modeled	–	–	–
OCC1CC2(CCC2)CN1c1ncnc2[nH]ccc12 (stereo not drawn) [AVI-3728]	0	0.24	–	TRUE	–	0.24	TRUE	2	48%	48%	–	TRUE	Adenosine	Distal site, weak density, not modeled	–	–	–
C[C@@H](O)[C@H](CO)Nc1ncnc2[nH]ccc12.O=C(O)C(F)(F)F [AVI-3730]	0	0.14	TRUE	TRUE	–	0.14	TRUE	1	28%	28%	Adenosine	–	–	–	–	–	–
Cc1nn(C)cc1C1CC[C@H](CO)N1c1ncnc2[nH]ccc12 (stereo partly drawn) [AVI-3733]	20	0.1	–	TRUE	TRUE	0.1	TRUE	1	20%	40%	–	TRUE	Adenosine	–	–	–	–
